Reference: BindingDB's records for patent US10123984 (Theravance Biopharma R&D Ip, 2018)

Biological target: Neprilysin (Homo sapiens, UniProt P08473)
Assay: Enzyme NEP Inhibition Assay
Experimental: The assays were performed in 384-well white opaque plates at 37° C. using the fluorogenic peptide substrates at a concentration of 10 μM in Assay Buffer (NEP: 50 mM HEPES, pH 7.5, 100 mM NaCl, 0.01% polyethylene glycol sorbitan monolaurate (Tween-20), 10 μM ZnSO4; ACE: 50 mM HEPES, pH 7.5, 100 mM NaCl, 0.01% Tween-20, 1 μM ZnSO4). […] Test compounds were added to the enzymes and incubated for 30 minute at 37° C. prior to initiating the reaction by the addition of substrate.

| Structure (SMILES) | IC50 [nM] | Ki [nM] |
| --- | --- | --- |
| C[C@H](C[C@@H](Cc1ccc(-c2ccccc2)cc1)NC(=O)CCCC(=O)O)C(=O)O [US10123984, Compound 21e] | 90 |  |
| CC(C)COC(=O)C(=O)N[C@H](Cc1ccc(-c2cccc(Cl)c2)cc1)C[C@@H](O)C(=O)O [US10123984, Example 2H] |  | < 1 |
| C[C@H](CC(Cc1ccc(-c2ccccc2)cc1)NC(=O)CC(=O)O)C(=O)O (some centres undefined) [US10123984, Compound 21g] | 92 |  |
| C[C@H](C[C@@H](Cc1ccc(-c2ccccc2)cc1)NC(=O)CCCCC(=O)O)C(=O)O [US10123984, Compound 21f] | 324 |  |
| O=C(O)C(=O)N[C@H](Cc1ccc(-c2cccc(Cl)c2)cc1)C[C@@H](O)C(=O)O [US10123984, Example 2A] |  | < 1 |
| CCOCCCOC(=O)C(=O)N[C@H](Cc1ccc(-c2cccc(Cl)c2)cc1)C[C@@H](O)C(=O)O [US10123984, Example 2V] |  | < 1 |
| CCOC(=O)C(=O)N[C@H](Cc1ccc(-c2cccc(Cl)c2)cc1)C[C@@H](O)C(=O)O [US10123984, Example 2F] |  | < 1 |
| O=C(N[C@H](Cc1ccc(-c2cccc(Cl)c2)cc1)C[C@@H](O)C(=O)O)C(=O)OCCOc1ccccc1 [US10123984, Example 2U] |  | < 1 |
| COCCOC(=O)C(=O)N[C@H](Cc1ccc(-c2cccc(Cl)c2)cc1)C[C@@H](O)C(=O)O [US10123984, Example 2T] |  | < 1 |
